Results published in ChEMBL document CHEMBL1201862, “PubChem BioAssay data set” (2004).
Calls of active or inactive are those of the source.

Tests used:
Beta-galactosidase = Beta-galactosidase (Escherichia coli, UniProt Q8VNN2); assay: detection-enzyme interference by beta-gal modulators – biochemical, E. coli enzyme, set 3, artefact control for CCR6 antagonist project, dose response (AID 504712); assay type: functional
[1] = Vero E6 cell cytotoxicity, dose response, cytotoxicity control for non-replicating M. tuberculosis project, secondary assay (AID 492998); assay type: functional, VeroE6; details: Vero C1008
[2] = Trypanosoma cruzi growth suppression in host cells – NIH3T3 host cells, beta-gal luminescence, confirmation (AID 2044); assay type: functional, cell-based;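 also: intracellular parasites grown in NIH/3T3 mouse fibroblasts as host cells; luminescent beta-galactosidase reporter signal from transgenic T. cruzi replicating inside host cells; inhibitors lower the luminescence signal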
[3] = HepG2 cell cytotoxicity, dose response, cytotoxicity control for non-replicating M. tuberculosis project (AID 489018); assay type: functional; details: Mycobacterium tuberculosis
[4] = microbe, parasite or virus in culture; assay type: functional; details: Mycobacterium tuberculosis
[5] = NIH3T3 cell viability loss – ATP luminescence, mouse fibroblasts, counter-screen, dose response (AID 2010); assay type: functional, cell-based;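 also: cells exposed to compound for about 90 hours before reading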
[6] = THP-1 cell cytotoxicity, dose response, cytotoxicity control for non-replicating M. tuberculosis project (AID 489025); assay type: functional
cells = assay type: functional
[7] = A cytotoxicity screen of small molecule inhibitors of the PhoP region in Salmonella typhi identified in the primary screen. [Related pubchem assays: 1850, 1864, 1985 ]; assay type: functional
[8] = molecular target: T1, Heat shock factor protein 1 (Mus musculus, UniProt P38532); assay: enhancement of HSF1-driven luciferase signal – cell-based, NIH3T3, luminescence, dose retest, confirmation (AID 435004); assay type: functional;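 also: stress induced by proteasome inhibitor MG132 added 30 min after compound; luciferase reporter driven by HSF1 response element in NIH3T3 cells; actives raise luminescence as potentiators of the MG132 stress response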
T1 sequence (P38532 whole entry): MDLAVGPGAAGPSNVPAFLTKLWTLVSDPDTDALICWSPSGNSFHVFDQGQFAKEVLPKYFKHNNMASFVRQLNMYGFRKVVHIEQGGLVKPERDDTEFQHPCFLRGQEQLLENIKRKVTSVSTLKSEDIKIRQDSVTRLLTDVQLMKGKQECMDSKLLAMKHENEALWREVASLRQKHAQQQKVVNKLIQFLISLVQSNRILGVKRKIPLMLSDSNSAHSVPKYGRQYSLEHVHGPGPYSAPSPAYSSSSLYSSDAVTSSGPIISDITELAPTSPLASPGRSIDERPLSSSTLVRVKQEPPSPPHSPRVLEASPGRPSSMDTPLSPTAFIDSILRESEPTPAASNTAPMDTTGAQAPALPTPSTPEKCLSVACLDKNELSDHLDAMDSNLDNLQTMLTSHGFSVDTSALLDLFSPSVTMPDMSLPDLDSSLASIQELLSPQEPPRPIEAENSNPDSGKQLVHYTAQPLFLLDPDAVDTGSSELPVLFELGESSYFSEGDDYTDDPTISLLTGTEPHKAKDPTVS

[9] = HPDE-C7 pancreatic duct cell viability loss – fluorescence, HTS (AID 430); assay type: functional, cell-based; details: Homo sapiens
Protein RecA = molecular target: T2, Protein RecA (Mycobacterium tuberculosis, UniProt P9WHJ3); assay: Fluorescence Cell-Free Homogeneous Dose Retest to Identify Inhibitors of RecA-Intein Splicing Activity. [Related pubchem assays (depositor defined):AID2097, AID2223, AID489010, AID492950]; assay type: functional
T2 sequence (P9WHJ3 whole entry): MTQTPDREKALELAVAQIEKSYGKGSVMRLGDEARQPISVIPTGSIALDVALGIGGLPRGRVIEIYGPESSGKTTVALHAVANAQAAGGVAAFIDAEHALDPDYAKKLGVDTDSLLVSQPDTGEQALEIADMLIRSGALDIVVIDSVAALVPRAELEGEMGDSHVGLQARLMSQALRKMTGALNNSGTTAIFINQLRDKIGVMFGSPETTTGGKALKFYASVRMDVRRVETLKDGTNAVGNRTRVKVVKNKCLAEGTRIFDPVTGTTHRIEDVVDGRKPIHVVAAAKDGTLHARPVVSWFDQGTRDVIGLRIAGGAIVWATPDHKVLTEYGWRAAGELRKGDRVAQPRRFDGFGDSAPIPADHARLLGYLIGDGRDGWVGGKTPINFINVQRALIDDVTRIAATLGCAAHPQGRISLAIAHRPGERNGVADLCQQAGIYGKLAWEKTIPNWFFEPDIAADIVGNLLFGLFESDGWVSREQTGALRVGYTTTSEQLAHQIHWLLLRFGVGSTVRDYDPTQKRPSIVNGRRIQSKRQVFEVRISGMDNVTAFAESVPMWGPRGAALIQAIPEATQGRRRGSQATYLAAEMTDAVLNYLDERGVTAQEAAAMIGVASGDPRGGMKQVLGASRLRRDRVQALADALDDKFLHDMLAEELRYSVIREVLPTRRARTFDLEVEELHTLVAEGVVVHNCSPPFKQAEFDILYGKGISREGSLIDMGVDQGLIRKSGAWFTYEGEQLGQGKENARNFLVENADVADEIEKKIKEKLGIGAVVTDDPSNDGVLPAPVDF

[10] = molecular target: T3, Replicative DNA helicase DnaB (Mycobacterium tuberculosis, UniProt P9WMR3); assay: DnaB intein splicing inhibitors, dose response, biochemical, cell-free fluorescence (AID 449749); assay type: functional
T3 sequence (P9WMR3 whole entry): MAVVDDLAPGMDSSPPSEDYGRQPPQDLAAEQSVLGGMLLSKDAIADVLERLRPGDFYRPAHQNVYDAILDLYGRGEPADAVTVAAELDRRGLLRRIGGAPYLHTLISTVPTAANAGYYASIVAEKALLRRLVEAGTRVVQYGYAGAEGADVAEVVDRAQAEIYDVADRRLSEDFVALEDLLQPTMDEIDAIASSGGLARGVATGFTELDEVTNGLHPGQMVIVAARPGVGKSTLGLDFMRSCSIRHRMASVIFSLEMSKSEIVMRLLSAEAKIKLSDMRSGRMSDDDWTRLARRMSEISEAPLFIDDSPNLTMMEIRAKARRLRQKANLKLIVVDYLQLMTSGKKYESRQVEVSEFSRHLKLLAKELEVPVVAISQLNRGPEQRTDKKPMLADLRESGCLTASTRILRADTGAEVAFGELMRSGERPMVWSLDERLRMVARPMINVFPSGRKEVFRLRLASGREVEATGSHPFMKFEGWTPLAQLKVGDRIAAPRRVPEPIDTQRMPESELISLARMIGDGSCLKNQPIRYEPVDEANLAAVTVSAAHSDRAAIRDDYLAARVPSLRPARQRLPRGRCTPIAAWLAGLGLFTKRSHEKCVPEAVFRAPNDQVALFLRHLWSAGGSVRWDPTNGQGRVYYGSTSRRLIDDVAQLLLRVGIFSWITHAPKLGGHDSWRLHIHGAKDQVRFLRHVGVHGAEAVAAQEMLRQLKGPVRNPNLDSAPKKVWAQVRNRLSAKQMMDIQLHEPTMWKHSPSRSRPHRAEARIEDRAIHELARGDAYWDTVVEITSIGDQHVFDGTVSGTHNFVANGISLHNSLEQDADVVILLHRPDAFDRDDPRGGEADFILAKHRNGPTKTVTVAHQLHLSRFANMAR

[11] = viability loss of HPDE-C7K cells – cell-based, fluorescence, HTS, primary screen (AID 431); assay type: functional; details: Homo sapiens
[12] = molecular target: T1, Heat shock factor protein 1; assay: decrease of HSF1-responsive luciferase luminescence – cell-based, NIH3T3, dose retest, confirmation (AID 2382); assay type: functional;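 also: NIH3T3 fibroblasts with HSF1-driven luciferase reporter stressed by proteasome inhibitor MG132; luminescence from HSF1-driven luciferase expression after 8 hours of MG132 stress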
[13] = molecular target: T4, Luciferin 4-monooxygenase (Photinus pyralis, UniProt P08659); assay: Counter Screen for Luciferase-based Assay Positives. [Related pubchem assays: 620, 618, 411 ]
Cytochrome P450 2C19 = Cytochrome P450 2C19 (Homo sapiens, UniProt P33261); assay: Cytochrome panel assay with activity outcomes. Panel member name: p450-cyp2c19 Compounds with AC50 equal or less than 10 uM are considered active; assay type: functional; details: read-out: AC50
HT-1080 = assay: HT1080 cell viability loss – fluorescence readout (AID 620); assay type: functional, cell-based; details: Homo sapiens
[14] = CCR5-tropic HIV-1 fusion blockers – cell-based, CCR5-tropic Env, dose response (AID 2279); assay type: functional
[15] = molecular target: T4, Luciferin 4-monooxygenase; assay: inhibition of purified Photinus pyralis luciferase – biochemical, luminescence, dose response (AID 1891)
[16] = Luminescence Cell-Based Dose Confirmation HTS to Identify Inhibitors of Platelet Dense Granule Release. [Related pubchem assays: 1663 (Primary HTS), 1678 (Summary of Project)]; assay type: functional
Aminopeptidase N = molecular target: T5, Aminopeptidase N (Plasmodium falciparum FcB1/Columbia, UniProt O96935); assay: malaria alanyl aminopeptidase activity blockers – biochemical, fluorogenic H-Leu-NHMec substrate, 1536-well (AID 1445); design: species or system Plasmodium falciparum 3D7, 3D7
T5 sequence (O96935 whole entry): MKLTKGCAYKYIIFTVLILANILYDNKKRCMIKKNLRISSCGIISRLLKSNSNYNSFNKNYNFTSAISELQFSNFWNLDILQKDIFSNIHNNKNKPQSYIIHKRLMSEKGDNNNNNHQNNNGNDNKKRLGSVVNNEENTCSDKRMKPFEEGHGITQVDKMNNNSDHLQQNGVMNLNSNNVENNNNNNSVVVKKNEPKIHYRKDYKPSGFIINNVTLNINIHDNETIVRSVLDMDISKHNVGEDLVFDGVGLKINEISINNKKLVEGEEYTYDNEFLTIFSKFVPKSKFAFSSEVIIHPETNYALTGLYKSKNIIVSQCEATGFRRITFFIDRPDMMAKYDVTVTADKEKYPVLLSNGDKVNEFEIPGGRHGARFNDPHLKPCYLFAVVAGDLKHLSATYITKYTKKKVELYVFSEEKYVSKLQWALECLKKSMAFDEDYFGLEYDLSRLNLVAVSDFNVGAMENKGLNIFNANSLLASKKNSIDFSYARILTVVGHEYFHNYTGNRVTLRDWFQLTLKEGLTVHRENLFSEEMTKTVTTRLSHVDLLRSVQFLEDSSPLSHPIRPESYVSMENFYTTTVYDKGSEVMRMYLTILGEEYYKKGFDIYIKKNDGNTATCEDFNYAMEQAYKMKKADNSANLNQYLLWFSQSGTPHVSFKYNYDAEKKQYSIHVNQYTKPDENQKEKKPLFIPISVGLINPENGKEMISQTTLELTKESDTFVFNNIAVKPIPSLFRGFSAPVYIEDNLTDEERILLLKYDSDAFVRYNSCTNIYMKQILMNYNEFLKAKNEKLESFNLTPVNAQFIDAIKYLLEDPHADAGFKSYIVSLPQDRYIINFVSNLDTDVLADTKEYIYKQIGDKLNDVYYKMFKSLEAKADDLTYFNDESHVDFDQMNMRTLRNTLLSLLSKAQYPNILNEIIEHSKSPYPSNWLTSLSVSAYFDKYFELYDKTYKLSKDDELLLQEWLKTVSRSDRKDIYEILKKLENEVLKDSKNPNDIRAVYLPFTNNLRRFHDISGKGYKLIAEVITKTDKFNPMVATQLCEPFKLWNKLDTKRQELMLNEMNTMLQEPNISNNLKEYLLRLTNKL

[17] = molecular target: T6, Rac GTPase-activating protein 1 (Homo sapiens, UniProt Q9H0H5); assay: blockers of MgcRacGAP-driven Rac1 GTP hydrolysis – biochemical, ADP Hunter fluorescence, primary and confirmatory, confirmation (AID 624330); assay type: functional
T6 sequence (Q9H0H5 whole entry): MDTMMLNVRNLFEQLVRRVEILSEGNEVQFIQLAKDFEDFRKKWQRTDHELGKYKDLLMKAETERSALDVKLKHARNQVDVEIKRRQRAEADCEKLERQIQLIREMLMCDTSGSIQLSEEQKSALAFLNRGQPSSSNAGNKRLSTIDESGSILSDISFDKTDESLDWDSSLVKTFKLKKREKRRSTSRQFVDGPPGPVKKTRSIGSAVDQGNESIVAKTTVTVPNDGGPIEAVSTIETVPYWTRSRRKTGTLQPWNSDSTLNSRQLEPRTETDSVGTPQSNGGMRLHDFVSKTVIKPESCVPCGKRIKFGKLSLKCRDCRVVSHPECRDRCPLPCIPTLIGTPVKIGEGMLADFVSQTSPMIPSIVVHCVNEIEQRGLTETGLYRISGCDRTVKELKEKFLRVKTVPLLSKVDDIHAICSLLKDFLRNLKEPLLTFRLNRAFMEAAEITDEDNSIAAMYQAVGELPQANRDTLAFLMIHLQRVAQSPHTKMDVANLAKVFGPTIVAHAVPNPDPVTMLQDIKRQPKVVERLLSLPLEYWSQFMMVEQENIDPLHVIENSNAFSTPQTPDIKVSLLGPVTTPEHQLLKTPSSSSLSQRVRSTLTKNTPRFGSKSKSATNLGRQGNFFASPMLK

T4 sequence (P08659 whole entry): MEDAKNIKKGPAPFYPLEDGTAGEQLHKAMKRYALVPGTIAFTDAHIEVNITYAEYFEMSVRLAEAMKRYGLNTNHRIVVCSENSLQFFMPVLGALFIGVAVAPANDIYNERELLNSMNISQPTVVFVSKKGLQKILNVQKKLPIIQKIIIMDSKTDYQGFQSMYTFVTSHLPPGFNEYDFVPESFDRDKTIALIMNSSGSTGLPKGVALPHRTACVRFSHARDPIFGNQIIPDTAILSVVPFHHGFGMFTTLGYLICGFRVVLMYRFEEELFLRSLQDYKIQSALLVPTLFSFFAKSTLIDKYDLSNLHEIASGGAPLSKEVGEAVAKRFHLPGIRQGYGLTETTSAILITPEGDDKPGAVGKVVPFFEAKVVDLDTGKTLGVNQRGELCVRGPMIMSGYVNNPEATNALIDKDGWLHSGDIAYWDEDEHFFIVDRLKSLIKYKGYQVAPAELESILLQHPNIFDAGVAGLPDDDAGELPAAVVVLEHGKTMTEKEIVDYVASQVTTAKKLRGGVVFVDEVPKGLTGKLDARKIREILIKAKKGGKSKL
Sequence of Beta-galactosidase (Q8VNN2 whole entry): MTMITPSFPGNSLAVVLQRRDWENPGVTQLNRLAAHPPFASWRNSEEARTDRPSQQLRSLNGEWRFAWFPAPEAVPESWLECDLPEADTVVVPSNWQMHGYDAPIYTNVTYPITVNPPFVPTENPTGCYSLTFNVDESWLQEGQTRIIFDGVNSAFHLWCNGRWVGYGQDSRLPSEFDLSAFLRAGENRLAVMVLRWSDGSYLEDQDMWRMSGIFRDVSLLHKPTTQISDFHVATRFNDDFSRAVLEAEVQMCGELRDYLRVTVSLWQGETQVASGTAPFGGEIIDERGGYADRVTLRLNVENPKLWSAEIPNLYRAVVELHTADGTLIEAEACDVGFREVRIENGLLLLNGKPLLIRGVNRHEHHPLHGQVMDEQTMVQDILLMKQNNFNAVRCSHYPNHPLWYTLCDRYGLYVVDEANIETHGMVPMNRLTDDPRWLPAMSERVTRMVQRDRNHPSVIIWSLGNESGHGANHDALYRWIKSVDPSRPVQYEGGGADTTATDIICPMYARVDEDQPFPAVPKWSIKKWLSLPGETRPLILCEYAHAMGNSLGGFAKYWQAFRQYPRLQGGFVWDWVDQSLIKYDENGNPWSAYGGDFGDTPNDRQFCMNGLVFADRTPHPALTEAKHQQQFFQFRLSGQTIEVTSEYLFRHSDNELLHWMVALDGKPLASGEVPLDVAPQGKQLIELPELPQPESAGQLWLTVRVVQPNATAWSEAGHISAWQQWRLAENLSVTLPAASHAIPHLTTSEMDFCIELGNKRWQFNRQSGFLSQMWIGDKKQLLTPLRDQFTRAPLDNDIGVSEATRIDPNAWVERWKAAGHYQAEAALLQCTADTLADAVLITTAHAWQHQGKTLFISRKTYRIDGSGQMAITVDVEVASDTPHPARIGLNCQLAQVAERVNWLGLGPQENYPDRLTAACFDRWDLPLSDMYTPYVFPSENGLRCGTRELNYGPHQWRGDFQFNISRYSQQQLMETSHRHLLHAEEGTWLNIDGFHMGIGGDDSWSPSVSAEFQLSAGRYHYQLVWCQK
Sequence of Cytochrome P450 2C19 (P33261 whole entry): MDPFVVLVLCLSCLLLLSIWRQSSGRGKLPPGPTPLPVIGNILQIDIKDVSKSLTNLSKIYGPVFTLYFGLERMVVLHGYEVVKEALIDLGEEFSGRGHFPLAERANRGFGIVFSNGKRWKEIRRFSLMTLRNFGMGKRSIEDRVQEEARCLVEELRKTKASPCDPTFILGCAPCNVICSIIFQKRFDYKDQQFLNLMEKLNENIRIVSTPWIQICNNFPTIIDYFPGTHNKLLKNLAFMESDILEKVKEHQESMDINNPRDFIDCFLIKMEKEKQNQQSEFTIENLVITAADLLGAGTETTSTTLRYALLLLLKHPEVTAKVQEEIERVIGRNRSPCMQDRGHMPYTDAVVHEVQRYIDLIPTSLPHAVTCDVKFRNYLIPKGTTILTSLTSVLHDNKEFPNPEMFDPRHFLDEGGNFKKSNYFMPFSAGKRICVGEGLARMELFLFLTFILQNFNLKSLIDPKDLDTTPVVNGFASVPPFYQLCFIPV

CN1C(=O)C(c2c(O)[nH]c3ccccc23)=NC1=S
IC50 (Beta-galactosidase): > 66.6 µM (inactive)

Cc1ccc(NC(=O)COc2ccccc2CNC(C)(C)CC(C)(C)C)cc1
CC50 [1]: 15.7 µM (active)
EC50 [2]: 1.36 µM (active)
CC50 [3]: 13.8 µM (active)
CC50 [4]: 23.4 µM (active)
EC50 [5]: 8.6 µM (active)
CC50 [6]: 18.9 µM (active)
IC50 (cells): 13.4 µM (active)

Cc1occc1C(=O)N/N=C/c1cccs1
EC50 [7]: > 50 µM (active)

CC(C)(C)NC(=O)CSc1ncnc2c1nnn2Cc1ccccc1Cl
EC50 [8]: 13.3 µM (active)
EC50 [9]: 11.8 µM (active)
EC50 (Protein RecA): 8.37 µM (active)
AC50 [10]: 6.8 µM (active)
EC50 [11]: 14.1 µM (active)

CCOC(=O)c1sc2nc3c(cc2c1N)COC(C(C)C)C3 (stereo unspecified)
EC50 [12]: > 195 µM (not active)
EC50 [13]: 2.84 µM (active)
AC50 (Cytochrome P450 2C19): 22.4 µM (inconclusive)
EC50 (HT-1080): > 50 µM (not active)

Cc1cc(C)c2ccc(/C=N/O)nc2c1O
CC50 [1]: 19.5 µM (active)
CC50 [3]: > 20 µM (active)
CC50 [6]: 22.9 µM (active)
IC50 (cells): 4.25 µM (active)

COc1ccc(-c2nn(-c3ccccc3)cc2/C=C2/SC(=S)N(CCCC(=O)O)C2=O)c(C)c1
IC50 [14]: 45 µM (active)

Nc1ccc(-c2nc3ccc(N)cc3o2)cc1
EC50 [13]: 6.3 µM (active)
EC50 [15]: 20.1 µM (active)
EC50 (HT-1080): > 50 µM (not active)
EC50 [16]: 25 µM (active)
IC50 (Aminopeptidase N): 26.2 µM (active)
IC50 [17]: 47.8 µM (active)

O=C(Nc1ccc2nc(S)sc2c1)Nc1ccccc1F
EC50 [7]: > 50 µM (active)

COc1cccc(N2CCN(C(S)=NCc3ccco3)CC2)c1
EC50 [7]: > 50 µM (active)
